Assay results published in ChEMBL document CHEMBL4804284.

Experiments:
Set-up in all cases: scale not given: the % may be the effect or the level left
[1] = biological target: Mitogen-activated protein kinase kinase kinase 5 (Homo sapiens) (UniProt Q99683); test: Inhibition of DNA-tagged human ASK1 assessed as percent of control at 50000 nM by qPCR analysis relative to control
[2] = biological target: Receptor tyrosine-protein kinase erbB-3 (Homo sapiens) (UniProt P21860); test: Inhibition of DNA-tagged human ERBB3 assessed as percent of control at 50000 nM by qPCR analysis relative to control
[3] = biological target: Citron Rho-interacting kinase (Homo sapiens) (UniProt O14578); test: Inhibition of DNA-tagged human CIT assessed as percent of control at 50000 nM by qPCR analysis relative to control
Sequence of Citron Rho-interacting kinase (Homo sapiens) (O14578 whole entry): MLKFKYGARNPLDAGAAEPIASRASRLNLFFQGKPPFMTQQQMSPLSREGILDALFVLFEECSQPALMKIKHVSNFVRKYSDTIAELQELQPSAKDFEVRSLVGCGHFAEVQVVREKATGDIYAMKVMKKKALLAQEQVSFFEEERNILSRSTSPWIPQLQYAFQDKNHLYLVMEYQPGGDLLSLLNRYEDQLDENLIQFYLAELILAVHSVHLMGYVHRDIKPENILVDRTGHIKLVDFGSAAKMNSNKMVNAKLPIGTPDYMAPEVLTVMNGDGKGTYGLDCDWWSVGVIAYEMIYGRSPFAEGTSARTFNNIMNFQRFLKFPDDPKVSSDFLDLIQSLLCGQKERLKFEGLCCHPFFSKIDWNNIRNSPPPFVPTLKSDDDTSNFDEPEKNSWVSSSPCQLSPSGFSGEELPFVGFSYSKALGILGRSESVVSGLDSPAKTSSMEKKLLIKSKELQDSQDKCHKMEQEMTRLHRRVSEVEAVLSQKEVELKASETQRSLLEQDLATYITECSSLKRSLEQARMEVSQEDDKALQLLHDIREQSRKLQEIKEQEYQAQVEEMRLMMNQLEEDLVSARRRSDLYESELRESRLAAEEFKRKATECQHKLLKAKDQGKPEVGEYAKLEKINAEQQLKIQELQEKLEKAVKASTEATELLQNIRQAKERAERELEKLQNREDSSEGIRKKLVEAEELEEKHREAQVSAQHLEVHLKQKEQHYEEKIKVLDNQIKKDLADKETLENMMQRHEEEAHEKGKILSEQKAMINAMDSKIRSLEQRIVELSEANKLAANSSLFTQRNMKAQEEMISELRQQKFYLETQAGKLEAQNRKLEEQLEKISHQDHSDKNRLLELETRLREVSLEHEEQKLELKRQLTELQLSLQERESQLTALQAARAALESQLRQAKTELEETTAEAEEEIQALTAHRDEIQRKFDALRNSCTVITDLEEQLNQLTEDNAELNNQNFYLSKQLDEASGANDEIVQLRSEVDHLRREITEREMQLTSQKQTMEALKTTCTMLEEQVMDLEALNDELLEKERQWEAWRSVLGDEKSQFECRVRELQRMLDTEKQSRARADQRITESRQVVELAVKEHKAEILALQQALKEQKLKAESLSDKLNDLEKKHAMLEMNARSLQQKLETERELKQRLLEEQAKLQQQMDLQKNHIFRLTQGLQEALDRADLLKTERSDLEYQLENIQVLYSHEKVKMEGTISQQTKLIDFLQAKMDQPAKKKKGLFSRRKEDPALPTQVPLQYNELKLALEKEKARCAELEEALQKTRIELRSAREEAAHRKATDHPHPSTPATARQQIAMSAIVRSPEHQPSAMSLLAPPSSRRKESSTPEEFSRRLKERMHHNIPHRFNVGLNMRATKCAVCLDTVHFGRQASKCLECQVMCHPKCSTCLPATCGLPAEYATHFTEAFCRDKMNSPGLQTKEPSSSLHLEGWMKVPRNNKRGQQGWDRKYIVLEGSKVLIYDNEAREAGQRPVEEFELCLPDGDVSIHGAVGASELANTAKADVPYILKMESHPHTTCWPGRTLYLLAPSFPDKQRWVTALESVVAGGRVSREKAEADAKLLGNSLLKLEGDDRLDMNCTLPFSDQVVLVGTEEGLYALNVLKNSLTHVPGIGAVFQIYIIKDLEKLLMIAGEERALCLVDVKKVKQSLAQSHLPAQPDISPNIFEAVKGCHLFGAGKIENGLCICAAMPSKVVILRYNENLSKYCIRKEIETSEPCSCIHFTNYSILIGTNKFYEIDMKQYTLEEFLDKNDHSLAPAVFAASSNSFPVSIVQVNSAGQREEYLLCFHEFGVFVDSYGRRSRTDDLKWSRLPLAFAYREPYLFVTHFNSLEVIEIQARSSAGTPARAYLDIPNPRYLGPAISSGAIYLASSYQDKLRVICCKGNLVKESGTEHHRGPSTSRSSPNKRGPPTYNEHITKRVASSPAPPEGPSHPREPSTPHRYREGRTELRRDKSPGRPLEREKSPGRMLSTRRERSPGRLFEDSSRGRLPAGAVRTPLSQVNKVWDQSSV

[4] = biological target: Serine/threonine-protein kinase 32B (Homo sapiens) (UniProt Q9NY57); test: Inhibition of DNA-tagged human YANK2 assessed as percent of control at 50000 nM by qPCR analysis relative to control
Sequence of Serine/threonine-protein kinase 32B (Homo sapiens) (Q9NY57 whole entry): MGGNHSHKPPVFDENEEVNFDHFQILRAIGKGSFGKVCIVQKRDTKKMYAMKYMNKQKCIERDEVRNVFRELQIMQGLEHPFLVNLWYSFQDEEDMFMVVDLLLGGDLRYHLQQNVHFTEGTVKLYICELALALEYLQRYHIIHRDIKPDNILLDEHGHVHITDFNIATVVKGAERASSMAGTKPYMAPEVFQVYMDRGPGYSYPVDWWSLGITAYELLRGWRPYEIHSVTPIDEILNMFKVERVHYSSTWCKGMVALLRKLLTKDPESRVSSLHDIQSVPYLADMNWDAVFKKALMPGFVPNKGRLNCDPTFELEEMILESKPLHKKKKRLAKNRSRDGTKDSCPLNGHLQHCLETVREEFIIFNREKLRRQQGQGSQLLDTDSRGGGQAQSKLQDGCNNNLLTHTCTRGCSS

[5] = biological target: Cyclin-dependent kinase 9 (Homo sapiens) (UniProt P50750); test: Inhibition of DNA-tagged human CDK9 assessed as percent of control at 50000 nM by qPCR analysis relative to control
[6] = system: Epidermal growth factor receptor (Homo sapiens), P00533 [L861Q]; test: Inhibition of DNA-tagged human EGFR L861Q mutant assessed as percent of control at 50000 nM by qPCR analysis relative to control
[7] = system: Mast/stem cell growth factor receptor Kit (Homo sapiens), P10721 [A829P]; test: Inhibition of DNA-tagged human KIT A829P mutant assessed as percent of control at 50000 nM by qPCR analysis relative to control
[8] = biological target: Serine/threonine-protein kinase 32A (Homo sapiens) (UniProt Q8WU08); test: Inhibition of DNA-tagged human YANK1 assessed as percent of control at 50000 nM by qPCR analysis relative to control
[9] = biological target: Ephrin type-B receptor 3 (Homo sapiens) (UniProt P54753); test: Inhibition of DNA-tagged human EPHB3 assessed as percent of control at 50000 nM by qPCR analysis relative to control
[10] = biological target: Protein kinase C theta type (Homo sapiens) (UniProt Q04759); test: Inhibition of DNA-tagged human PRKCQ assessed as percent of control at 50000 nM by qPCR analysis relative to control
[11] = biological target: Tyrosine-protein kinase JAK1 (Homo sapiens) (UniProt P23458); test: Inhibition of DNA-tagged human JAK1 JH2 pseudokinase domain assessed as percent of control at 50000 nM by qPCR analysis relative to control
[12] = biological target: 5'-AMP-activated protein kinase catalytic subunit alpha-2 (Homo sapiens) (UniProt P54646); test: Inhibition of DNA-tagged human AMPK-alpha2 assessed as percent of control at 50000 nM by qPCR analysis relative to control
[13] = biological target: Ribosomal protein S6 kinase alpha-2 (Homo sapiens) (UniProt Q15349); test: Inhibition of DNA-tagged human C-terminal RSK3 kinase domain 2 assessed as percent of control at 50000 nM by qPCR analysis relative to control
Sequence of Ribosomal protein S6 kinase alpha-2 (Homo sapiens) (Q15349 whole entry, the tested form may be a part): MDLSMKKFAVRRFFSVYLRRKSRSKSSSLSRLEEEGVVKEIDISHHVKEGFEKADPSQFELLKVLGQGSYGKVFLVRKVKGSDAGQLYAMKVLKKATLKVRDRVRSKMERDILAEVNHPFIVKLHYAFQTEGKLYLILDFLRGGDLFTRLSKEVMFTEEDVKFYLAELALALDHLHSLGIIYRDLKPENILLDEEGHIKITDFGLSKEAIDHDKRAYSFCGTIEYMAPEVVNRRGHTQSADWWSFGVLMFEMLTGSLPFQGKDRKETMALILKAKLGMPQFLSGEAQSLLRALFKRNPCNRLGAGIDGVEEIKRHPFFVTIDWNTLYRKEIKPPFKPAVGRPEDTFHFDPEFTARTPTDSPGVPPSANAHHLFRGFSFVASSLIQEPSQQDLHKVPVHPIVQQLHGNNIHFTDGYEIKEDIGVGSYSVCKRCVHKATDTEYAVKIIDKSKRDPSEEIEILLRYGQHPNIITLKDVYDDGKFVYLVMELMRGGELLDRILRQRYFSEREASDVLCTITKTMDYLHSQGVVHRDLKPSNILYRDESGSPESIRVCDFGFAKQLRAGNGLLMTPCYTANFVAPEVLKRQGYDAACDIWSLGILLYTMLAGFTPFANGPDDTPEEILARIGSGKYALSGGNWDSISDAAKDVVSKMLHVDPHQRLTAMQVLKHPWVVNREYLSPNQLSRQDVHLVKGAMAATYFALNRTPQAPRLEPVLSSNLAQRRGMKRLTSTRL

[14] = biological target: Serine/threonine-protein kinase BRSK2 (Homo sapiens) (UniProt Q8IWQ3); test: Inhibition of DNA-tagged human BRSK2 assessed as percent of control at 50000 nM by qPCR analysis relative to control
[15] = system: Epidermal growth factor receptor (Homo sapiens), P00533 [UNDEFINED MUTATION]; test: Inhibition of DNA-tagged human EGFR L747-T751del/Sins double mutant assessed as percent of control at 50000 nM by qPCR analysis relative to control
[16] = biological target: Mitogen-activated protein kinase 4 (Homo sapiens) (UniProt P31152); test: Inhibition of DNA-tagged human ERK4 assessed as percent of control at 50000 nM by qPCR analysis relative to control
[17] = biological target: Phosphatidylinositol 4-phosphate 5-kinase type-1 alpha (Homo sapiens) (UniProt Q99755); test: Inhibition of DNA-tagged human PIP5K1A assessed as percent of control at 50000 nM by qPCR analysis relative to control
[18] = biological target: Ribosomal protein S6 kinase alpha-6 (Homo sapiens) (UniProt Q9UK32); test: Inhibition of DNA-tagged human N-terminal RSK4 kinase domain 1 assessed as percent of control at 50000 nM by qPCR analysis relative to control
[19] = system: Tyrosine-protein kinase ABL1 (Homo sapiens), P00519 [M351T]; test: Inhibition of DNA-tagged phosphorylated human ABL1 M351T mutant assessed as percent of control at 50000 nM by qPCR analysis relative to control
[20] = biological target: Receptor tyrosine-protein kinase erbB-4 (Homo sapiens) (UniProt Q15303); test: Inhibition of DNA-tagged human ERBB4 assessed as percent of control at 50000 nM by qPCR analysis relative to control
[21] = biological target: Transient receptor potential cation channel subfamily M member 6 (Homo sapiens) (UniProt Q9BX84); test: Inhibition of DNA-tagged human TRPM6 assessed as percent of control at 50000 nM by qPCR analysis relative to control
[22] = biological target: Serine/threonine-protein kinase TAO2 (Homo sapiens) (UniProt Q9UL54); test: Inhibition of DNA-tagged human TAOK2 assessed as percent of control at 50000 nM by qPCR analysis relative to control
[23] = biological target: Serine/threonine-protein kinase DCLK2 (Homo sapiens) (UniProt Q8N568); test: Inhibition of DNA-tagged human DCAMKL2 assessed as percent of control at 50000 nM by qPCR analysis relative to control
[24] = system: Tyrosine-protein kinase ABL1 (Homo sapiens), P00519 [UNDEFINED MUTATION]; test: Inhibition of DNA-tagged non-phosphorylated human ABL1 […] mutant assessed as percent of control at 50000 nM by qPCR analysis relative to control
[25] = biological target: Cyclin-dependent kinase-like 5 (Homo sapiens) (UniProt O76039); test: Inhibition of DNA-tagged human CDKL5 assessed as percent of control at 50000 nM by qPCR analysis relative to control
Sequence of Cyclin-dependent kinase-like 5 (Homo sapiens) (O76039 whole entry): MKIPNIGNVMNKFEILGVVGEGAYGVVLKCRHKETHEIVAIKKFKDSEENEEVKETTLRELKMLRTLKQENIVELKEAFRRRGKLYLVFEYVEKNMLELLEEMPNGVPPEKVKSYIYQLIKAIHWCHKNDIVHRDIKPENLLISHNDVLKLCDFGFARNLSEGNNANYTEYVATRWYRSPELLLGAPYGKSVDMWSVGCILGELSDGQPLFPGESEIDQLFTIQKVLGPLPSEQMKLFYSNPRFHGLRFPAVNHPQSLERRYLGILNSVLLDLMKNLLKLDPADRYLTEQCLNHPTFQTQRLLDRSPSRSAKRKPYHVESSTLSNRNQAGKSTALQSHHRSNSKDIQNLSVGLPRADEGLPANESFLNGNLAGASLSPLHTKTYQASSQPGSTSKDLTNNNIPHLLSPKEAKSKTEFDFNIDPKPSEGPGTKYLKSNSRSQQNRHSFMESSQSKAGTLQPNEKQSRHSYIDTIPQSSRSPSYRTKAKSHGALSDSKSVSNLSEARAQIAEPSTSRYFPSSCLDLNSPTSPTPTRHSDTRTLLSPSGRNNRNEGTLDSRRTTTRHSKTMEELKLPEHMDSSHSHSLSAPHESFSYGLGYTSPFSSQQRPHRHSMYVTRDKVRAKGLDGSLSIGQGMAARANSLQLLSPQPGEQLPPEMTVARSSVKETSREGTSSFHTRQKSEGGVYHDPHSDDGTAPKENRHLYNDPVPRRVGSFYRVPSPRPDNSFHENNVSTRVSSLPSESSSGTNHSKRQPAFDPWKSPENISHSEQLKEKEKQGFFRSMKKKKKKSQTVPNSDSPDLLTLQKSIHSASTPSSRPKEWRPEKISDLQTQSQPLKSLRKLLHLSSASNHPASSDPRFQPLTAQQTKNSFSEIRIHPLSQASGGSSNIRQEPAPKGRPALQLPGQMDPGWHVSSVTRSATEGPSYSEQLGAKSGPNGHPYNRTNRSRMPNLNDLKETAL

[26] = biological target: Fibroblast growth factor receptor 1 (Homo sapiens) (UniProt P11362); test: Inhibition of DNA-tagged human FGFR1 assessed as percent of control at 50000 nM by qPCR analysis relative to control
[27] = biological target: Serine/threonine-protein kinase D1 (Homo sapiens) (UniProt Q15139); test: Inhibition of DNA-tagged human PRKD1 assessed as percent of control at 50000 nM by qPCR analysis relative to control
Sequence of Serine/threonine-protein kinase D1 (Homo sapiens) (Q15139 whole entry): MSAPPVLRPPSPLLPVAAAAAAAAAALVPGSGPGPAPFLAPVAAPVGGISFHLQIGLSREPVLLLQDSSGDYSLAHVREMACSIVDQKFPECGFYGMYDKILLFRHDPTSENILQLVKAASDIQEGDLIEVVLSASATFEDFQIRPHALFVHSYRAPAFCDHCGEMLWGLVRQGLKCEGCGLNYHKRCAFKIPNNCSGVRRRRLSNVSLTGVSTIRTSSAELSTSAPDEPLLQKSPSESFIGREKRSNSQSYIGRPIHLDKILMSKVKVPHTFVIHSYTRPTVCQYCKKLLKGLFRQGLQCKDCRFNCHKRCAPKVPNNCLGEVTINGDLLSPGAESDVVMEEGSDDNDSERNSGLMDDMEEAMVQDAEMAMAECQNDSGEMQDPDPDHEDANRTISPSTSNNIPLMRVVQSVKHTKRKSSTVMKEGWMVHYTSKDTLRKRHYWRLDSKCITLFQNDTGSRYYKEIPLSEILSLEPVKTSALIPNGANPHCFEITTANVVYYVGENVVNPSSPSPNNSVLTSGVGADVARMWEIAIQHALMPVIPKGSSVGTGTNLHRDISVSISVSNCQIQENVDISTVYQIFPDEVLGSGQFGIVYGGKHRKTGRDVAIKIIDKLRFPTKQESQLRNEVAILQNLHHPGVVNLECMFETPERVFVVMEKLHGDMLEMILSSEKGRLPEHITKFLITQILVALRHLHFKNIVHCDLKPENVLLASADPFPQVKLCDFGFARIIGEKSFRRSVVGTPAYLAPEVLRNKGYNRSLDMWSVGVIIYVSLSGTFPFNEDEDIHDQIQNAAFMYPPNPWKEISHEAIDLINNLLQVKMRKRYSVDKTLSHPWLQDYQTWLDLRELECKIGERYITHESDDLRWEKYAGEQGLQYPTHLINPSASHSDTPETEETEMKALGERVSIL

[28] = biological target: Serine/threonine-protein kinase Nek1 (Homo sapiens) (UniProt Q96PY6); test: Inhibition of DNA-tagged human NEK1 assessed as percent of control at 50000 nM by qPCR analysis relative to control
[29] = biological target: Calcium/calmodulin-dependent protein kinase type II subunit gamma (Homo sapiens) (UniProt Q13555); test: Inhibition of DNA-tagged human CAMK2G assessed as percent of control at 50000 nM by qPCR analysis relative to control

## CN1C(=O)/C(=C2/C(=O)Nc3ccccc32)c2ccccc21
[1]
  Activity: 100%
[2]
  Activity: 51%
[3]
  Activity: 78%
[4]
  Activity: 100%
[5]
  Activity: 84%
[6]
  Activity: 83%
[7]
  Activity: 63%
[8]
  Activity: 99%
[9]
  Activity: 90%
[10]
  Activity: 99%
[11]
  Activity: 100%
[12]
  Activity: 100%
[13]
  Activity: 92%
[14]
  Activity: 100%
[15]
  Activity: 87%
[16]
  Activity: 86%
[17]
  Activity: 100%
[18]
  Activity: 99%
[19]
  Activity: 73%
[20]
  Activity: 88%
[21]
  Activity: 78%
[22]
  Activity: 84%
[23]
  Activity: 93%
[24]
  Activity: 100%
[25]
  Activity: 91%
[26]
  Activity: 100%
[27]
  Activity: 97%
[28]
  Activity: 92%
[29]
  Activity: 90%
